Laboratory results taken from PubChem BioAssay AID1198 (NMMLSC, 2008).

Test system: LNCaP side scatter shift, flow cytometry, 4 days
Assay: LNCaP side scatter shift induction by compounds – cell-based, flow cytometry, side scatter granularity, dose response (AID 1198)

EC50 [µM] | Structure (SMILES)
0.83 | CCN(CC)CC(=O)Nc1ccc(-c2nc3cc(NC(=O)CN(CC)CC)ccc3o2)cc1
7.49 | COc1ccc(CCn2c(=N)c(C(=O)NCc3ccco3)cc3c(=O)n4ccccc4nc32)cc1
